Measurements as given in publication PMC13185748, “Targeting noncanonical nuclear factor kappa B signalling in CYLD cutaneous syndrome by selective inhibition of IκB kinase alpha” (The British Journal of Dermatology, 2026).

Target: T1, IκB kinase alpha (IKKα) (Homo sapiens, UniProt O15111)
T1 construct: gene CHUK
T1 sequence (O15111 1-745): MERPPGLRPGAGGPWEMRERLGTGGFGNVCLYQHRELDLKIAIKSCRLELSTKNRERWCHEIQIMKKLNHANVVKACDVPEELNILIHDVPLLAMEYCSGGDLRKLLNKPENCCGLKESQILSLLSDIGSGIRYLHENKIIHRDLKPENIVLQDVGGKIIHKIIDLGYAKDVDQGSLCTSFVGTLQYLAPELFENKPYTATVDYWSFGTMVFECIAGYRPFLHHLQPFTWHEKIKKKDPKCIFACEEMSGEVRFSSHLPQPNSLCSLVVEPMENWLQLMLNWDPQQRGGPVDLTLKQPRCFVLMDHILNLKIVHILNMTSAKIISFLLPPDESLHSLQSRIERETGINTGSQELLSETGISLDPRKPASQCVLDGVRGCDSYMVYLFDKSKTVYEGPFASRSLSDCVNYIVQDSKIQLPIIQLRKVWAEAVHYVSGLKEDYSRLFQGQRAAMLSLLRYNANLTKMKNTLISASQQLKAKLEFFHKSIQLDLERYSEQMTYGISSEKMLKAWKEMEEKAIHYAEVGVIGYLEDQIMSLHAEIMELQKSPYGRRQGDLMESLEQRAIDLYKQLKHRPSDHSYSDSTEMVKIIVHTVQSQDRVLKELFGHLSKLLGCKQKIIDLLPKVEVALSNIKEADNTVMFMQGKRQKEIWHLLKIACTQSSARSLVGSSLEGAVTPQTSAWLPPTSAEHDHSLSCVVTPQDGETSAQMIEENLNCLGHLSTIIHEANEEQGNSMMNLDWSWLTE
Test: target engagement in PC3m cells by pharmacodynamic markers (p100 phosphorylation; RelB nuclear translocation), data not shown
Type: cell-based

IC50: 50 nM
Substance: SU1644
